Test results published in patent publication US11629192B2, “Methods and pharmaceutical compositions for the treatment of diseases mediated by the NRP-1/OBR complex signaling pathway” (INSERM (Institut National de la Sante et de la Recherche …, priority 2014, dated 2023).
Entries after “also recorded” stand apart in the source; their conditions may differ.

What was measured:
[1] = test system: T47D-NRP-1-RFP xenografts; assay: T47D-NRP-1-RFP xenografts in Nude mice; format: in vivo
Excerpt: (§1) First MBA-MB-231 and T47D breast cancer cells line were selected for their high and undetectable NRP-1 expression respectively and the expression of Leptin receptor (OBR). In order to investigate NRP-1 and Leptin association in breast cancer cell line migration, we proceeded to NRP-1 expression silencing in MDA-MB-231 using either siRNA or shRNA approaches or NRP-1 overexpression in T47D. […] In contrast Leptin induced MDA-MB-231 migration that was decreased in siNRP-1 conditions. The in vitro data were confirmed in vivo by MDA-MB-231 and T47D xenografts in Nude mice. Modulation of NRP-1 expression either by shRNA silencing in MDA-MB-231 or by overexpression in T47D induced an increase of proliferation and a decrease of lymph node infiltration by MDA-MB-231-shNRP-1 and a decrease of proliferation and an increase of lymph node infiltration by T47D-NRP-1-RFP in mice treated with Leptin.
This need to be more investigated and may be a new strategy for combined anti-Leptin and anti-VEGF therapies in breast cancer. […] In vitro and in vivo data are a direct evidence of NRP-1 and Leptin association in breast cancer cell line migration. This implication of Leptin and NRP-1 are in agreement of published data but with no association between Leptin and NRP-1. […]

NRP-1/OBR complex = NRP-1/OBR complex detection by Duolink Proximity Ligation Assay in MDA-MB-231 cells; format: cell-based, human; settings: Leptin stimulation compared to serum starved and unstimulated cells
Excerpt: FIG. 2A-E. NRP-1/OBR complex is dependent of the activity of Protein-kinase CK2: NRP-1 and OBR are both a substrate of the holoenzyme CK2: In vitro phosphorylation of the recombinant full length NRP-1 (A) and the length OBR (B) indicate that the CK2β subunit is indispensable for the CK2 activity. C. Detection of the NRP-1 and CK2β subunit interaction: By using the PLA technology, the in vitro data showing the implication of CK2β subunit in the phosphorylation of NRP-1 by CK2 are in part confirmed in MDA-MB231 cells by the detection of CK2β interaction with NRP-1 as indicated by the duolink (white dot). […] E. inhibition of the NRP-1/OBR by the simultaneous CK2α and CK2α′ expression silencing using siRNA that confirms the CK2 implication In the NRP-1/OBR complex formation and nuclear localization.
To confirm a direct association of NRP-1 and Leptin in breast cancer cell migration, we investigated the NRP-1 and OBR interaction by using proximity ligation assay technology (Duolink) in MDA-MB-231 and in T47D-NRP-1. Since OBR is a member of the class I cytokine receptor family, we asked the question if the formation of the complex NRP-1/OBR can or not be modulated by Leptin. This question was investigated endogenously in MDA-MB-231 or by transient transfection of T47D either by NRP-1 or by NRP-1/OBR or OBR alone. After 24 h of transfection, cells were serum starved for 16 h then stimulated with Leptin (10 nM). After 3 h, the stimulation was stopped by removing the medium, cells was first washed then fixed and NRP-1/OBR complex formation was analyzed by Duolink in situ Proximity Ligation Assay (PLA) and by confocal microscopy detection. Co-localization was analyzed using JACoP (ImageJ; National Institutes of Health, Bethesda, Md.) software. Co-localization between molecules was indicated by a positive Pearson coefficient (r). First, the expression of NRP-1 in transfected T47D was confirmed by RT-PCR. NRP-1 forms a complex with endogenous OBR as it is shown by the Duolink detection as red dot in cells transfected with pcDNA3-NRP-1. The Duolink signal increased in the T47D co-transfected with NRP-1 and OBR. The Duolink signals in T47D transfected with either the empty vector pcDNA3 or with the OBR expressing vector were similar. The same results are observed in MDA-MB-231. […] By using subcellular protein fractionation kit, NRP-1 and OBR localization in cytoplasmic (C), membrane (M), in the total nuclear extract (N) or in soluble nuclear (SN) and chromatin bound fractions (CB) was analyzed by western blotting either in total lysate or after coimmunoprecipitation. The purity of fraction was assessed by the detection of specific proteins of each fraction such as Hsp90 for the C fraction, SP1 and HDAC2 for the SN and CB fractions and specifically the Calreticulin for endoplasmic reticulum (ER) in order to detect any contamination by the ER membrane fraction in the nuclear fractions. As suspected, OBR was coimmunoprecipitated with NRP-1 in the cytoplasmic (C) and in the nuclear fraction (N) of MDA-MB-231 but not in T47D. As well as Phosphorylated OBR (P-OBR), NRP-1 was detected in cytoplasmic fraction and in nuclear fractions SN and CB of 16 h serum starved MDA-MB-231 and stimulated with 10 nM of Leptin during 3 h at 37° C. The P-OBR and NRP-1 coimmunoprecipitated in the nuclear fractions, increasing with Leptin stimulation as observed by confocal microscopy.
As attempted, NRP-1/OBR complex was detected by confocal microscopy after by Duolink in situ Proximity Ligation Assay (PLA) in MDA-MB-231 stimulated with Leptin (10 nM). This detection was also observed in MDA-MB-231-shGFP but very less in MDA-MB-231-shNRP-1 confirming NRP-1 association with OBR.

[2] = test system: MDA-MB-231 and T47D-NRP-1; assay: In vitro cell proliferation (MTT, (H3)-thymidine, BrdU incorporation); format: cell-based, human; settings: Leptin stimulation
Excerpt: as §1
This observation can lead to conclude that NRP-1 induces tumor growth independently of Leptin/OBR pathway and that NRP-1/OBR complex signaling is in a favor of cell movement and migration induction. The implication of Leptin in tumor growth and metastasis has already been studied but the published data are contradictory depending on cancer cell type and model studies. […] In our case, in vitro leptin implication in cell growth has been evaluated by different methods. […]

Leptin: small non glycosylated protein, ligand of OBR
lymph node infiltration by T47D-NRP-1-RFP ([1]; Leptin treatment, human KL1 staining): significantly increased
tumor growth ([1]; T47D overexpressing NRP-1 xenograft treated with Leptin): tumor growth decrease
direct interaction between NRP-1 and OBR (Duolink PLA) (NRP-1/OBR complex): takes place under Leptin stimulation
cell proliferation [2]: decreased; also recorded: unable to observe; also recorded: not able to observe a significant increase
